Test results taken from US20200018743A1, “MINI-CANCERS UTILIZATION FOR PERSONALIZED CANCER DRUG REGIMENS” (THE JOHNS HOPKINS UNIVERSITY, priority 2017, published 2020).
“Also recorded” adds a separate entry of the source. Read-outs that look alike come from different tables or passages of the source. Starred links: 1 amine or outer side, 2 acyl side, 3 side chain; linkers in the order of their positions; H or OH if unused. Positions of bridges follow the written chain, without caps; N, C: chain ends. Non-standard residues stand in square brackets, D forms with d. Residues, ends and D or L forms follow the SMILES beside them. Chains are numbered I, II in the order given. Actinocin(9to1) = Cc1c2oc3c(C)ccc(C(=O)[*:1])c3nc-2c(C(=O)[*:2])c(N)c1=O; NMeV = CN[C@H](C(=O)O)C(C)C; Sar = CNCC(=O)O

Columns and labels:
[1] = test system: 27 liver cancer PDO lines; experiment: High throughput screening of NCI VII 129-drug panel on 27 liver cancer PDO lines (CellTiter-Glo); format: cell-based, human; conditions: for inter patient effect (mean cell viability per patient cancer specimen): across the 5 patients' cancers; for effectiveness across the cohort of primary liver mini-cancers / all 27 liver cancer PDO lines: 10 uM, CellTiter-Glo
Text: To pick out inter patient divergent drugs (i.e., drugs with discordant effect across the 5 patients), we calculated the mean cell viability per patient cancer specimen by averaging the effect of the drugs across all PDO lines established for the same patient. This mean cell viability per patient is a measure of how the tumor, as a whole, responds to a certain drug. Next, we calculated the standard deviation of the 5 means (one per patient) and ordered the data in decreasing order of the standard deviation. […] To further visualize the inter-patient divergence of drug effects, the inventors constructed a heat map of drug responses per each patient (utilizing the mean cell viability over all clones from each patient, FIG. 20B).
(§1) This intra tumor functional heterogeneity was investigated by calculating the standard deviation of a drug response across all PDO lines established from a patient tumor. […] The inventors chose one of the cancer specimens (CCA8) for further in-depth studies of intra-tumor functional heterogeneity and the identification of its drivers. […] To visualize this phenomenon, we calculated the standard deviation of each drug effect across the 6 PDOs (FIG. 20D). […] To this end, we first chose drugs that induced 30% or less viability in at least one of the 6 sister CCA PDO lines when tested at a 10 uM concentration. […] Of note, there is no known genetic alteration (mutational or otherwise) to predict the response of human cancers to proteasome inhibitors.
Take out Matrigel from −20 C and keep at 4 C overnight. Also keep pipette tips at 4 C overnight. Count cells. Mix cells with Matrigel so that you have 200 cells per uL of Matrigel. […] Plate 2 rows, then stop. Wait till the Matrigel is solid. Then add 100 uL of growth passage media. Then continue till all plate is filled up with cells. Place plate into incubator. Take picture with white light. After 4 days replace the media with media containing drugs (90 uL media+10 uL drug work solution). Use a multi-pipette.
(§2) PDOs were plated in 96-well or 384-well plates and cultured for 3 days. Next, media was changed with drug-containing media. The initial screen was performed at a concentration of 10 uM. After 4 days, viability was determined in each well with Cell TiterGlo (Cat #: G7572, Promega, Wis.) following the manufacturer's instruction. […] was measured with a plate reader (Perkin-Elmer EnVision Plate Reader). Drugs that induced less than 50% viability were chosen for future studies.

[2] = test system: CCA8 sister CCA PDO lines; experiment: 129-drug panel on the 6 sister PDO lines of CCA8; format: cell-based, human
Text: as §1, §2

CCA PDO = experiment: Drug testing on a CCA PDO line read by white light / bright field images; format: cell-based, human; conditions: for effect on PDO (shape, number or size of cystic PDO structures): 9-drug library, 10 uM, white light images; for effect on PDO growth (cytocidal / cytostatic): over 96 hours
Protocol: In preliminary studies, the inventors have obtained resection cancer tissue from 10 CCA patients. […] Pilots experiments were performed with a 9-drug library, at a standard HT screening drug concentration of 10 uM. For positive control, the inventors used 10% Triton X, while for negative control the inventors used DMSO at same concentration used to dissolve drugs. […] As proof of concept, the inventors then expanded to the 1,600 drug JHCCL Hopkins library (data not shown). […] This scale-up required a reproducible and accurate read out. We chose CellTiter-Glo (Promega), an ATP-based cytotoxicity assay that quantifies metabolically active cells. […] Next, the inventors sought to determine IC50s. […] Next, the inventors performed whole exome sequencing on a subset of these CCA PDOs. […] The inventors next performed pilot trials with high-content imaging. We utilized DRAQ5 (red) to stain nuclei and YOYO-1 (green in FIG. 9) to stain dead cells. In this experiment, we treated a CCA PDO culture with Gemcitabine, at concentrations from 10 to 0.1 uM. […] FIG. 10 is a representative 100× Hematoxylin and Eosin image of a PDX tumor.
Initial drug testing experiments were performed on one PDO line, with a 9-drug library, at a standard HT screening drug concentration of 10 uM. For these experiments, we utilized a CCA PDO line. For positive control, we used 10% Triton X, while for negative control we used DMSO […] same concentration used to dissolve drugs. For these experiments, we utilized white light images and equated the killing effect of drugs into shrinking of PDO cystic structures. […] To this end, we tested the 5 chemotherapy agents typically used in CCA patients, as well as several combinations (FIG. 18C). […] Next, we sought a fast, reproducible and relatively inexpensive read out of cell death (or inhibited proliferation). We chose CellTiter-Glo (Promega), which is an ATP-based cytotoxicity assay that quantifies metabolically active cells. […] Therefore, we have used CellTiter-Glo for all subsequent experiments. […] By using CellTiter-Glo, we quantified the viability of cells treated with single agents as well as combinations (as in FIG. 18C).

HCC = HCC patients; cited from earlier work

Molecule | killing effect / activity across the 6 PDO lines ([2]; CCA8, 10 uM) | effectiveness across the cohort of primary liver mini-cancers / all 27 liver cancer PDO lines [1] | further results
CC[C@]1(O)C[C@H]2CN(CCc3c([nH]c4ccccc34)[C@@](C(=O)OC)(c3cc4c(cc3OC)N(C=O)[C@H]3[C@@](O)(C(=O)OC)[C@H](OC(C)=O)[C@]5(CC)C=CCN6CC[C@]43[C@@H]65)C2)C1 [vincristine] | – | – | inter patient effect (mean cell viability per patient cancer specimen) [1]: work well in just 1 cancer
O=C(/C=C/c1cccc(S(=O)(=O)Nc2ccccc2)c1)NO [Belinostat] | moderate activity in 1/6 PDO lines and generally poor activity in 5/6 | – | –
CC(C)C[C@H](NC(=O)CNC(=O)c1cc(Cl)ccc1Cl)B(O)O [Ixazomib, ixazomib] | effective across the 6 PDO lines | pan-effective | –
plicamycin | effective across the 6 PDO lines | pan-effective | –
CS(=O)(=O)CCNCc1ccc(-c2ccc3ncnc(Nc4ccc(OCc5cccc(F)c5)c(Cl)c4)c3c2)o1 [Lapatinib] | uniformly ineffective | – | –
CC[C@H](Nc1ncnc2[nH]cnc12)c1nc2cccc(F)c2c(=O)n1-c1ccccc1 [Idelalisib] | uniformly ineffective | – | –
CO[C@@]12[C@H](COC(N)=O)C3=C(C(=O)C(C)=C(N)C3=O)N1C[C@@H]1N[C@@H]12 [Mitomycin, mitomycin] | – | – | killing effect / activity across the 6 PDO lines [2]: effective across the 6 PDO lines
CC[C@@]1(O)C(=O)OCc2c1cc1n(c2=O)Cc2cc3c(CN(C)C)c(O)ccc3nc2-1 [topotecan] | – | pan-effective | –
CCC1=C[C@@H]2CN(C1)Cc1c([nH]c3ccccc13)[C@@](C(=O)OC)(c1cc3c(cc1OC)N(C)[C@H]1[C@@](O)(C(=O)OC)[C@H](OC(C)=O)[C@]4(CC)C=CCN5CC[C@]31[C@@H]54)C2 [Vinorelbine] | – | – | effect on PDO (shape, number or size of cystic PDO structures) (CCA PDO): effective
N.N.[Cl][Pt][Cl] [Cisplatin] | uniformly ineffective | – | effect on PDO (shape, number or size of cystic PDO structures) (CCA PDO): no effect; also recorded: did not appear to have any effect; effect on PDO (shape, number or size of cystic PDO structures) (CCA PDO; listed as cisplatin): no effect on the round shape of PDO; effectiveness in CCAs tested (CCA PDO; all 6 CCAs tested): ineffective; effect on PDO growth (cytocidal / cytostatic) (CCA PDO): ineffective; also recorded: unaffected PDO growth
CC(=O)[C@]1(O)Cc2c(O)c3c(c(O)c2[C@@H](O[C@H]2C[C@H](N)[C@H](O)[C@H](C)O2)C1)C(=O)c1ccccc1C3=O [Idarubicin, idarubicin] | effective across the 6 PDO lines | pan-effective | –
COc1cccc2c1C(=O)c1c(O)c3c(c(O)c1C2=O)C[C@@](O)(C(C)=O)C[C@@H]3O[C@H]1C[C@H](N)[C@H](O)[C@H](C)O1 [daunorubicin] | – | pan-effective | –
Cc1[nH]c2ccccc2c1CCNCc1ccc(/C=C/C(=O)NO)cc1 [Panobinostat, panobinostat] | – | pan-effective | –
N#Cc1ccc(C(c2ccc(C#N)cc2)n2cncn2)cc1 [Letrozole] | uniformly ineffective | – | –
N[C@@H](Cc1ccc(N(CCCl)CCCl)cc1)C(=O)O [Melphalan] | uniformly ineffective | – | –
Nc1ccn([C@@H]2O[C@H](CO)[C@@H](O)C2(F)F)c(=O)n1 [Gemcitabine] | moderate activity in 1/6 and poor activity in 5/6 PDO lines | – | effect on PDO (shape, number or size of cystic PDO structures) (CCA PDO): moderate cytostatic but not a cytocydal effect; effect on PDO growth (cytocidal / cytostatic) (CCA PDO): moderate cytostatic, but not cytocidal effect; effect on PDO growth (cytocidal / cytostatic) (CCA PDO; listed as Gemicitabine): partially effective; inter patient effect (mean cell viability per patient cancer specimen) [1]: work in majority of cancers, but not in all of them
CNC(=O)c1cc(Oc2ccc(NC(=O)Nc3ccc(Cl)c(C(F)(F)F)c3)cc2)ccn1 [Sorafenib] | – | – | inter patient effect (mean cell viability per patient cancer specimen) [1]: work in majority of cancers, but not in all of them; improvement of survival (HCC): 3 months; side effects (HCC): severe side effects
COc1cccc2c1C(=O)c1c(O)c3c(c(O)c1C2=O)C[C@@](O)(C(=O)CO)C[C@@H]3O[C@H]1C[C@H](N)[C@H](O)[C@H](C)O1 [Doxorubicin] | – | – | inter patient effect (mean cell viability per patient cancer specimen) [1]: work in majority of cancers, but not in all of them
COc1cccc2c1C(=O)c1c(O)c3c(c(O)c1C2=O)C[C@@](O)(C(=O)CO)C[C@@H]3O[C@H]1C[C@H](N)[C@@H](O)[C@H](C)O1 [Epirubicin] | wide response | – | –
O=C1CCC(N2C(=O)c3ccccc3C2=O)C(=O)N1 (stereo not shown) [Thalidomide] | uniformly ineffective | – | –
C/C=C1\NC(=O)[C@H]2CSSCC/C=C/[C@H](CC(=O)N[C@H](C(C)C)C(=O)N2)OC(=O)[C@H](C(C)C)NC1=O [Romidepsin, romidepsin] | effective across the 6 PDO lines | pan-effective | –
Cc1c2oc3c(C)ccc(C(=O)N[C@@H]4C(=O)N[C@H](C(C)C)C(=O)N5CCC[C@H]5C(=O)N(C)CC(=O)N(C)[C@@H](C(C)C)C(=O)O[C@@H]4C)c3nc-2c(C(=O)N[C@@H]2C(=O)N[C@H](C(C)C)C(=O)N3CCC[C@H]3C(=O)N(C)CC(=O)N(C)[C@@H](C(C)C)C(=O)O[C@@H]2C)c(N)c1=O [Dactinomycin, dactinomycin] (I: T[dV]P[Sar][NMeV] / II: T[dV]P[Sar][NMeV]; ester I:1-I:C, II:1-II:C; linker I:N-II:N via Actinocin(9to1)) | – | – | inter patient effect (mean cell viability per patient cancer specimen) [1]: work well in just 1 cancer
Cc1cc(Nc2ncc(Cl)c(Nc3ccccc3S(=O)(=O)C(C)C)n2)c(OC(C)C)cc1C1CCNCC1 [Ceritinib] | high activity in 3/6 and almost no activity in the rest 3/6 PDO lines | – | –
CC(C)C[C@H](NC(=O)[C@H](CCc1ccccc1)NC(=O)CN1CCOCC1)C(=O)N[C@@H](Cc1ccccc1)C(=O)N[C@@H](CC(C)C)C(=O)[C@@]1(C)CO1 [Carfilzomib, carifilzomib] | effective across the 6 PDO lines | pan-effective | –
COC(=O)C[C@](O)(CCCC(C)(C)O)C(=O)O[C@@H]1C(OC)=C[C@]23CCCN2CCc2cc4c(cc2[C@H]13)OCO4 [Omacetaxine, omacetaxine] | wide response | – | –
